Results as given in PubChem BioAssay AID1117319 (Southern Research Institute, 2015).
Inconclusive results are not listed.

Target: Virion infectivity factor (Human immunodeficiency virus type 1 group M subtype B (isolate BH10)) + Virion infectivity factor (Human immunodeficiency virus type 1 group M subtype B (isolate BRU/LAI)) + Virion infectivity factor (Human immunodeficiency virus type 1 group M subtype B (isolate PCV12)) + Virion infectivity factor (Human immunodeficiency virus type 1 group M subtype B (isolate HXB2)) + DNA dC->dU-editing enzyme APOBEC-3G (Homo sapiens) (UniProt P69720+P69721+P69722+P69723+Q9HC16)
Experiment: HIV-1 Vif–A3G interaction blockers – biochemical, TR-FRET, GST-Vif 1-94, biotin-A3G peptide, dose response retest, primary screen (AID 1117319);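 also: Vif residues 1-94 fused to GST binding biotinylated APOBEC3G peptide 110-148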
Conditions: TR-FRET GST-Vif / biotin-A3G peptide binding

Structure (SMILES) | IC50 [µM]
Cc1ccc2c(c1C)NC(C(=O)O)C1CC=CC21 (stereo not drawn) | 0.59
CC(C)CC(=O)Nc1nnc(-c2ccco2)s1 | 68.1
COc1cccc2c1NC(C(=O)O)C1CC=CC21 (stereo not drawn) | < 0.398
C=CCn1c(N2CCCCCC2)nc2c1c(=O)[nH]c(=O)n2C | 30.1
COc1cc(N(C)C)ccc1C=c1c2ccccc2n2c1cc(-c1ccccc1)[n+]2C | 5.33
NC(=O)/C(=C/c1ccco1)C(N)=S | 9.35
COc1cc(C(=O)OCCN2CCCCC2)ccc1O | 45.4
NN=C1C(Cl)=C(Cl)C(Cl)=C1Cl | 10.6
COC(=O)C1=C(C)N(Cc2ccccc2)C(=O)/C1=C\c1ccco1 | 11.2
O=C(O)C1Nc2c(C(=O)N3CCOCC3)cccc2C2C=CCC12 (stereo not drawn) | 2.02
CN1c2ccsc2C(O)=C(C(=S)Nc2ccc(F)c(Cl)c2)S1(=O)=O | 1.12
CN1CCc2c(sc3c2c(NCc2ccco2)nc2nnnn23)C1 | 16.2
CCN1CCN(C2=NC(=O)/C(=C/c3ccc(C)o3)S2)CC1 | 3.48
O=C(Cc1ncn[nH]1)NCCc1ccccc1 | 96.9
CCC(=O)NC1=C(Cl)C(=O)C(NC(=O)CC)=C(Cl)C1=O | 22.9
Oc1ccc(C2Nc3cccc4cccc(c34)N2)c(O)c1 | 17.5
CCCn1nc(C(=O)Nc2cc(C(=O)OC)ccc2C)c2ccccc2c1=O | 86.5
CC(=O)Nc1cc(NC(C)=O)cc(C(=O)N2CCCC3CCCCC32)c1 (stereo not drawn) | 9.5
O=C1CC(SC(=S)C2CCCC2=O)C(=O)N1 (stereo not drawn) | 27.8
COc1nc(N(c2ccccc2)c2ccccc2)nc(-n2ccnc2)n1 | 26.3
O=C(CN1CCN(S(=O)(=O)c2ccc(F)cc2)CC1)c1ccc(O)c(O)c1 | 20.1
CC(=O)NN1C(=O)/C(=C/c2ccc(Br)o2)SC1=S | 11.7
Cc1ccc(NC(=O)c2ccc(Cl)c(N3C(=O)C=CC3=O)c2)cc1 | 81.2
O=C(COc1ccc(S(=O)(=O)N2CCCC2)cc1)NCCC1=CCCCC1 | 75.1
CC1=CC(C)(C)N2C(=O)C(=Nc3ccc(O)cc3)c3cccc1c32 | 3.5
O=C(c1cc2n(n1)C(C(F)(F)F)CC(c1ccco1)N2)N1CCc2ccccc2C1 (stereo not drawn) | 33.2

Structure (SMILES) | IC50 [µM]
O=C1NC(c2cccc(Br)c2)=N/C1=C\c1ccco1 | 9.01
Cc1cccc(N2C(=O)NC(=O)/C(=C/c3cc4c(cc3[N+](=O)[O-])OCO4)C2=O)c1 | 59.1
O=C(OC1CCCCC1)c1ccc2c(c1)C1C=CCC1C(C(=O)O)N2 (stereo not drawn) | 0.51
C=C(c1ccc(OCCO)cc1)c1ccc(OCCO)cc1 | 56.6
CCC(=O)OCCNc1cc(Sc2nc3ccccc3[nH]2)c2nonc2c1[N+](=O)[O-] | 9.48
CCc1cccc(NC(=O)CCS(=O)(=O)c2ccc(Br)cc2)c1 | 14.7
O=c1oc2c(O)c(O)cc3c(=O)oc4c(O)c(O)cc1c4c23 | 0.45
NC(CO)C(=O)NNCc1ccc(O)c(O)c1O (stereo not drawn) | 1.49
Cc1noc(/C=C/c2ccco2)c1S(=O)(=O)N1CCC(C(=O)NCc2ccco2)CC1 | 1.84
O=C(O)COc1ccc2c(c1)O/C(=C\c1ccco1)C2=O | 22.5
O/C=c1\ccc2cccc3nc(C(F)(F)F)nc1c23 | 2.79
C/C(N)=C(/C#N)C(=O)CSc1nnc(Nc2c(C)cccc2C)s1 | 17.5
O=C(O)CSc1c2c(nc3cc(C(=O)Nc4cccc(C(F)(F)F)c4)ccc13)CCC2 | 13.4
COC(=O)/C(=N/Nc1ccccc1C)N1CCCc2ccccc21 | 1.9
CC1=CC(C)(C)Nc2ccc(OC(=O)CN3C(=O)c4cccc5cccc(c45)C3=O)cc21 | 1.99
CCOC(=O)c1cc([N+](=O)[O-])cc([N+](=O)[O-])c1Sc1ncnc2nc[nH]c12 | 69.6
Cc1ccc(C)c2[nH]c(=O)c(CN(Cc3ccc4c(c3)OCO4)Cc3nnnn3Cc3ccco3)cc12 | 12.4
Nc1cccc2cc(S(=O)(=O)O)ccc12 | 35
CCc1cccc(NC(=O)CCCCCC2NC(=O)NC2C)c1 (stereo not drawn) | 0.47
CC(C)CCNC(=O)Cn1c2c(c(-c3ccccc3Cl)cc1=O)CCC2 | 19.7
NS(=O)(=O)c1ccc2c(c1)C1C=CCC1C(C1CC=CCC1)N2 (stereo not drawn) | 3.42
COc1cc(C2Nc3cccc4cccc(c34)N2)cc(OC)c1O | < 4.18
O=C1CCCC(O)=C1C=Nc1ccc(O)cc1 | 35.4
CC(C)CCNC(=O)c1ccc2c(SCC(=O)O)c3c(nc2c1)CCC3 | 59.8
CCOc1cccc(=O)c2c(C)n(Cc3ccco3)c(C)c12 | 0.45
Nc1ccc(N2CCN(Cc3ccccc3Cl)CC2)c(Cl)c1 | 85.1

Structure (SMILES) | IC50 [µM]
COc1cc(NC(=O)c2noc3c2CCC3)c(OC)cc1Cl | 15.8
Oc1ccc(/C=N/N2CCOCC2)c(O)c1O | 12.5
O=C(C1CCCN1S(=O)(=O)c1cccc2cccnc12)N1CCN(c2ccccc2)CC1 (stereo not drawn) | 40.2
NC(=O)C[C@@H]1N[C@]2(C(=O)Nc3ccccc32)[C@@H]2C(=O)N(c3cc(C(F)(F)F)ccc3Cl)C(=O)[C@H]12 | 55.5
CC1CC(=O)c2c(cc3c(-c4c(O)cc(O)c5c(O)c6c(cc45)OC(C)CC6=O)c(O)cc(O)c3c2O)O1 (stereo not drawn) | 0.41
CCN(C(=O)CN1CCN(c2ccc(O)cc2)CC1)c1c(N)n(Cc2ccccc2)c(=O)[nH]c1=O | 16.4
O=c1cc2oc3cc(O)c(O)cc3c(-c3ccccc3O)c-2cc1O | 0.84
CCNc1ccc(Br)cc(C(=O)/C=C/c2ccc3c(c2)OCO3)c1=O | 24.7
CC1=CC(=Nc2c(C)n(C)n(-c3ccccc3)c2=O)C=CC1=O | 5.02
O=C1C=Cc2ccccc2C1=O | 10.6
COC1=C(N)C(=O)c2nc(C)ccc2C1=O | 18.3
CCOc1ccc(C(=O)NC(=S)Nc2ccc(N3CCC(C)CC3)cc2)cc1[N+](=O)[O-] | 55.4
CC(Cc1c[nH]c2ccccc12)C(=O)NCc1ccco1 (stereo not drawn) | 33
CN(C1=C(NC(=O)c2ccc(Cl)cc2)C(=O)c2ccccc2C1=O)c1ccccc1 | 52.4
O=[N+]([O-])c1ccc(-c2ccc(/C=N/c3c(-c4ccco4)nc4ccccn34)o2)cc1 | 0.26
Cc1noc(/C=C/c2ccco2)c1S(=O)(=O)N1CCC(C(=O)N2c3ccccc3CC2C)CC1 (stereo not drawn) | 11.9
c1ccc2c(c1)CCCN2Cc1nnc2n1CCCCC2 | 31.5
O=C(O)CC1OCC=C2CN3CCC45C6=CC(=O)C(=O)C([N+](=O)[O-])=C6NC4C1C2CC35 (stereo not drawn) | 16.3
CCOC(=O)c1ccc(NS(=O)(=O)c2ccc3oc(=O)[nH]c3c2)cc1 | 88.2
CN(C)c1ccc(N=C/C=C2/N(C)c3ccccc3C2(C)C)cc1 | 2.19
COc1ccc(O)c(N)c1 | 0.93
Cc1ccc(C)n1/N=C1/NC(=O)CS1 | 0.9
O=C1C2CCCN2C(c2ccc(Cl)cc2)N1c1ccccn1 (stereo not drawn) | 84.7
CC1(C)Cc2nc3sc(C(=O)O)c(N)c3cc2CS1 | 18.4
COC(=O)COc1ccc(S(=O)(=O)Nc2cc(OC)ccc2OC)cc1 | 5.05
Cc1ccc2[nH]c(=O)c(C3C(C#N)=C(N)Oc4c3ccc3cccnc43)cc2c1 (stereo not drawn) | 24.3

Structure (SMILES) | IC50 [µM]
Cc1onc(-c2c(F)cccc2Cl)c1C(=O)Nc1nnc(C2CC2)s1 | 10.7
CN(C)c1ccc(Cc2cc3c(O)ccc(O)c3cc(Cc3ccc(N(C)C)cc3)c2=O)cc1 | 0.87
Cc1cccn2c(=O)c3cc(C(=O)NCc4ccco4)c(=N)n(CCc4ccccc4)c3nc12 | 34
O=C(N/N=C/c1cn(Cc2cccc(F)c2)c2ccccc12)c1cc(O)cc(O)c1 | 3.48
O=C(O)C1Nc2ccc(Br)cc2C2C=CCC12 (stereo not drawn) | 1.56
CC(=O)Nc1ccc(N/C=C/C(=O)C(C)(C)C)cc1 | 40.8
Cc1ccc(N(CN2C(=O)C3CC=CCC3C2=O)C(=O)c2ccco2)cc1Cl (stereo not drawn) | 53.4
O=C(/C=C/c1ccco1)c1cccnc1 | 14.1
Nc1cccc2c(O)cc(S(=O)(=O)O)cc12 | 2
Cc1ccc(S(=O)(=O)OCC(=O)Nc2ccc(C(=O)O)c(O)c2)cc1 | 64.1
O=S(=O)(Nc1nccs1)c1ccc(Nc2nnc(-c3ccccc3)c3ccccc23)cc1 | 84.3
NC(=O)C1CCN(C2=C(Cl)C(=O)c3ccccc3C2=O)CC1 | 2.5
COc1cccc(-n2c(/C=C/c3ccc(O)c(O)c3)nc3ccccc3c2=O)c1 | 10.7
Cc1cnc(NC(=O)CSc2nnc(CNc3ccc(F)cc3)n2CC2CCCO2)s1 (stereo not drawn) | 53
C[C@H]1c2cccc(O)c2C(O)=C2C(=O)[C@]3(O)C(O)=C(C(N)=O)C(=O)[C@@H](N(C)C)[C@@H]3[C@@H](O)[C@@H]21 | 13.6
O=C(N/N=C/C=C\c1ccco1)c1cccnc1 | 4.09
CCOC(=O)C1CCN(C(=O)Nc2ccc3nc(-c4ccco4)c(-c4ccco4)nc3c2)CC1 | < 0.432
O=C1C=C(Nc2cccc3cccnc23)c2ccccc2C1=O | 22.8
COc1ccc(/C=N\NC(=O)c2cc(O)c(O)c(O)c2)cc1CN1CCN(c2ccc(F)cc2)CC1 | < 2.47
FC(F)(F)c1cc(-c2ccco2)nc(NCc2ccco2)n1 | 4.24
COC/C=C/C1=CC2=CC(=O)C(C)(OC(=O)C3CCCC3)C(=O)C2=CO1 (stereo not drawn) | 2.75
O=C1/C(=C/c2ccco2)SC(=S)N1c1cccnc1 | 1.49
O=C(O)c1ccc2c(c1)C1C=CCC1C(c1ccncc1)N2 (stereo not drawn) | 3.85
Cc1ccc(CCC(=O)Nc2ccc(S(N)(=O)=O)cc2)o1 | 57.4
C=CCSc1nnc(NC(=O)CSc2nnc(C)s2)s1 | 90.6
